Test results taken from patent US9375411B2, “Uses and methods for the treatment of liver diseases or conditions” (Verlyx Pharma Inc., priority 2012, dated 2016).
Where a name gives a salt, the structure may show the parent alone.

How the values were obtained:
[1] = system: GalN/LPS-induced liver injury; test: GalN/LPS fulminant liver injury survival study; format: in vivo; settings: C57BL/6 mice; IP 30 minutes prior GalN/LPS; PENTAMIDINE 40 mpk, Decamidine 10 mpk
Method: In this experiment, the 8-hour survival rate for C57BL/6 mice is evaluated when treated or not with two different aromatic diamidines (pentamidine isethionate(C5) and decamidine isethionate (C10)). Both compounds were administered intraperitoneally at doses close to their MTD 30 minutes prior a GalN/LPS-induced liver injury.

[2] = Oral bioavailability and biodistribution of pentamidine salts; settings: mice; for Tissue Concentration Kidney / Tissue Concentration Liver / Tissue Concentration Lung / Tissue Concentration Pancreas: 24 hours after PO 200 mg/kg; for Tissue Concentration Kidney / Tissue Concentration Liver / Tissue Concentration Lung / Tissue Concentration Pancreas / AUCINF / Cl/F / Cmax / MRT / Tmax / t½: 200 mg/kg; for F* / AUCINF / Cl/F / Cmax / MRT / Tmax / t½: oral 200 mg/kg; for F*: based on the iv AUC at 5 mg/kg of 19.08; for AUCINF / Cl/F / Cmax / MRT / Tmax / t½: blood
Method: In this experiment, HCl, isethionate and tosylate salts of pentamidine were administered orally to mice and their PK and tissue accumulations were compared.
PK parameters for pentamidine salt following oral administration of 200 mg/kg in mice.
Biodistribution of Pentamidine Salts in mice, 24 hours after PO administration of 200 mg/kg.

In the case of N=C(N)c1ccc(OCCCCCCCCCCOc2ccc(C(=N)N)cc2)cc1 [Decamidine, decamidine isethionate], the 8-hour survival [1] is reported as 100%.
With N=C(N)c1ccc(OCCCCCOc2ccc(C(=N)N)cc2)cc1 [HCl salt, pentamidine bis-HCl] the “Tissue Concentration Kidney” value ([2]; listed as Penta-HCL, bis-HCl) was 156.3 µM, the “Tissue Concentration Liver” value ([2]; listed as Penta-HCL, bis-HCl) was 224.6 µM and the “Tissue Concentration Lung” value ([2]; listed as Penta-HCL, bis-HCl) was 43.4 µM. The “Tissue Concentration Pancreas” value ([2]; listed as Penta-HCL, bis-HCl) was 16.6 µM, the “F*” value ([2]; bis-HCl) was 20.7 and the AUCINF ([2]; bis-HCl) was 158.1 µM·h. It also gave a Cl/F ([2]; bis-HCl) of 85 mL/min/kg, a Cmax ([2]; bis-HCl) of 5240 nM and an MRT ([2]; bis-HCl) of 136.0 h. For the same compound, the Tmax ([2]; bis-HCl) was 2.67 h and the t½ ([2]; bis-HCl) was 90.8 h.
In the case of N=C(N)c1ccc(OCCCCCOc2ccc(C(=N)N)cc2)cc1 [Tosylate salt, pentamidine tosylate], the “Tissue Concentration Kidney” value ([2]; listed as Penta-Tos) is reported as 1.9 µM, the “Tissue Concentration Liver” value ([2]; listed as Penta-Tos) is reported as 4.1 µM and the “Tissue Concentration Lung” value ([2]; listed as Penta-Tos) is reported as 0.5 µM. The “Tissue Concentration Pancreas” value ([2]; listed as Penta-Tos) was 0.5 µM, the “F*” value [2] was 2.3 and the AUCINF [2] was 17.8 µM·h. It also gave a Cl/F [2] of 440 mL/min/kg, a Cmax [2] of 430 nM and an MRT [2] of 86.0 h. The Tmax [2] was 6.67 h and the t½ [2] was 54.9 h.
